Measured values: US8999326B2, “Oncotherapeutic application of inhibitors of high-affinity glucose transporters” (University of South Florida, priority 2007, dated 2015)

These compounds were tested on H1299, H1650 and MCF-7 cells (assay: BrdU proliferation assay, statements for all three cell lines). Settings: 5 μM cisplatin, 5 μM paclitaxel or 10 μM gefitinib.
Assay type: cell-based, human
Procedure: FIGS. 5A-5C show the combined effect of chemotherapeutic drugs and Glut-1 antibody on cell proliferation. H1299 (FIG. 5A), H1650 (FIG. 5B), and MCF-7 (FIG. 5C) cells were grown on chamber slides as described above and treated either with cisplatin, paclitaxel or iressa in presence or absence of Glut-1 antibody (0.1 mg) for 18 hours. The proliferation was measured by BrdU incorporation.
MCF-7, H1299 and H1650 cells were plated onto poly-D-lysine (Sigma) coated 8-well glass chamber slides (10,000 cells per well). The cells were incubated with 0.1 mg/ml Glut-1 monoclonal antibody for 18 hours. The cells were fixed and stained using 5-Bromo-2′ deoxyuridine labeling and detection kit from ROCHE according to manufacturer's protocol.
Experiments were done to evaluate whether anti-Glut-1 antibody could synergize with standard chemotherapeutic agents to inhibit proliferation of H1299, H1650 and MCF-7. The cells were plated on chamber slides and incubated in presence of chemotherapeutic agents (5 μM cisplatin, 5 μM paclitaxel or 10 μM geftinib) in absence or presence of 0.1 mg/ml anti-Glut-1 antibody.

| SMILES | effect of drug alone on proliferation |
| --- | --- |
| N.N.[Cl][Pt][Cl] [cisplatin] | significant decrease in proliferation |
| COc1cc2ncnc(Nc3ccc(F)c(Cl)c3)c2cc1OCCCN1CCOCC1 [gefitinib] | significant decrease in proliferation |
| CC(=O)O[C@H]1C(=O)[C@@]2(C)[C@H]([C@H](OC(=O)c3ccccc3)[C@]3(O)C[C@H](OC(=O)[C@H](O)[C@@H](NC(=O)c4ccccc4)c4ccccc4)C(C)=C1C3(C)C)[C@]1(OC(C)=O)CO[C@@H]1C[C@@H]2O [paclitaxel] | significant decrease in proliferation |
